Results published in patent publication US20160326098A1, “Pharmaceutically Active Compound for Use as Anti-inflammatory Agent” (Pax Forschung GmbH, priority 2013, published 2016).

Assays:
Format in all cases: in vivo
[1] = Body weight, rats with gastric injury without inflammation; conditions: 1.11 mmol/kg force-fed, one day after, FIG. 17
Experimental: (§1) The medicinal activity of the compound according to the invention and the pharmaceutical composition according to the invention was tested in a series of experiments performed on rats. The experiments were performed on male Sprague-Dawley rats (280-320 g) housed in plastic cages in a thermoneutral environment (21° C.±2° C.) with a 12 h dark-light cycle. The animals, fed on a normal diet with tap water ad libitum, were randomly allocated into experimental groups according to the feeding protocols.
(§2) Further experiments regarding the effect of a compound of formula (I) and a pharmaceutical composition comprising a compound of formula (I), respectively, on gastric injury without inflammation were conducted on rats. 15 animals were randomly allocated into three groups. Group H (n=5) served as sham-operated controls. Samples of all animals were drawn on day 1 of the clinical tests. On day 2 the animals of group I (n=5) were force-fed acetylsalicylic acid (ASS) (1.11 mmol/kg body weight). […] Fluorescence confocal endomicroscopy was performed to examine the microvasculature and morphologic changes of the mucosa of the distal colon, and full-thickness tissue samples and venous blood samples were taken to determine the biochemical changes in the colon and plasma. The effects were determined by way of measurement of body weight, blood gas analysation and biopsy. […]

[2] = Haematocrit in blood, rats with gastric injury without inflammation; conditions: 1.11 mmol/kg; for percentage of haematocrit in the blood / haematocrit level, low haematocrit data group (severe bleeding with plasma and cell loss): vs control group H; for percentage of haematocrit in the blood: FIG. 18; for haematocrit level, low haematocrit data group (severe bleeding with plasma and cell loss): FIG. 20; for haematocrit level, high haematocrit data group (bleeding with plasma loss): vs sham group H, FIG. 19
Experimental: as §1
(§3) Further experiments regarding the effect of a compound of formula (I) and a pharmaceutical composition comprising a compound of formula (I), respectively, on gastric injury without inflammation were conducted on rats. 15 animals were randomly allocated into three groups. Group H (n=5) served as sham-operated controls. Samples of all animals were drawn on day 1 of the clinical tests. On day 2 the animals of group I (n=5) were force-fed acetylsalicylic acid (ASS) (1.11 mmol/kg body weight). Group K (n=5) was force-fed 1.11 mmol/kg body weight of the compound according to the invention. Group H only received the respective solvent (25% ethanol in water). One day after the gavage, additional samples were drawn. Fluorescence confocal endomicroscopy was performed to examine the microvasculature and morphologic changes of the mucosa of the distal colon, and full-thickness tissue samples and venous blood samples were taken to determine the biochemical changes in the colon and plasma. The effects were determined by way of measurement of body weight, blood gas analysation and biopsy. ASS was chosen as a comparative example due to its structural similarity and its known activity as anti-inflammatory agent.
On the basis of the haematocrit measurements, the data can be divided into two groups:
a) high haematocrit level, indicating bleeding with plasma loss (FIG. 19); and b) low haematocrit level, indicating severe bleeding with plasma and cell loss (FIG. 20).

TNF-α = assay: Plasma TNF-α level, rats with gastric injury without inflammation; conditions: one day after 1.11 mmol/kg, vs control group H, FIG. 21
Experimental: Plasma TNF-α concentrations were determined in duplicate by means of a commercially available enzyme-linked immunosorbent assay (Quantikine ultrasensitive enzyme-linked immunosorbent assay kit for rat TNF-α; Biomedica Hungaria Kft, Budapest, Hungary). The minimum detectable level was less than 5 pg/ml, and the inter-assay and intra-assay coefficients of variation were less than 10%.
as §2, with “weight). Group K (n=5) was force-fed 1.11 mmol/kg body weight of the compound according to the invention.” for “weight).”

myeloperoxidase (MPO) = assay: Tissue myeloperoxidase activity, rats with gastric injury without inflammation; conditions: gastric and colon tissue, one day after 1.11 mmol/kg, vs control group H, FIGS. 23a/23b
Experimental: Colon biopsies kept on ice were homogenized in phosphate buffer (pH 7.4) containing 50 mM Tris-HCl (Reanal, Budapest, Hungary), 0.1 mM EDTA, 0.5 mM dithiothreitol, 1 mM phenylmethylsulfonyl fluoride, 10 μg/ml soybean trypsin inhibitor, and 10 μg/ml leupeptin (Sigma Aldrich GmbH, Munich, Germany). The homogenate was centrifuged at 4° C. for 20 minutes at 24,000 g, and the supernatant was loaded into centrifugal tubes (Amicon Centricon-100; 100,000-molecular-weight cutoff ultrafilter, Millipore Corporation, Bedford, Mass.). The activity of myeloperoxidase (MPO) was measured on the pellet of the homogenate.
The activity of MPO as a marker of tissue leukocyte infiltration was measured on the pellet of the homogenate. Briefly, the pellet was resuspended in K3PO4 buffer (0.05 M; pH 6.0) containing 0.5% hexa-1,6-bis-decyltriethylammonium bromide. After three repeated freeze-thaw procedures, the material was centrifuged at 4° C. for 20 minutes at 24,000 g, and the supernatant was used for MPO determination. […] The reaction led to the hydrogen peroxide-dependent oxidation of tetramethylbenzidine, which could be detected spectrophotometrically at 450 nm (UV-1601 spetrophotometer; Shimadzu, Kyoto, Japan). Myeloperoxidase activities were measured at 37° C.; the reaction was stopped after 5 minutes by the addition of 0.2 ml of H2SO4 (2 M), and the resulting data were referred to the protein content. […]

nitrite/nitrate (NOx) = assay: Nitrite/nitrate level in blood, rats with gastric injury without inflammation; conditions: 1.11 mmol/kg, vs control group H, FIG. 25
Experimental: The levels of plasma nitrite/nitrate (NOx), stable end products of NO were measured by the Griess reaction. This assay depends on the reduction of nitrate to nitrite, which is then converted into a colored azo dye compound that is detected spectrophotometrically at 540 nm.
as §3, with “ASS was chosen as a comparative example due to its structural similarity and its known activity as anti-inflammatory agent.” left out

[3] = system: High mobility group box protein 1 (HMGB-1); assay: Plasma high-mobility group protein B1, rats with TNBS-induced colitis; conditions: 1.11 mmol/kg, day 3, FIG. 31
Experimental: Colonic inflammation was induced by intracolonic administration of TNBS (2,4,6-trinitrobenzenesulfonic acid) (40 mg/kg in 0.25 ml of 25% aqueous ethanol) through an 8-cm-long soft plastic catheter under transient diethylether anesthesia. In the sham-operated groups, only the vehicle for TNBS was administered. The animals were deprived of food, but not water, for 12 h before the enemas.
High mobility group box protein 1 (HMGB-1) measurements in plasma:
Blood samples were drawn into chilled polypropylene tubes containing EDTA (1 mg/ml) and were centrifuged at 1200 g for 10 min at 4° C. The plasma samples were then collected and stored at −70° C. until assay. Plasma concentration of HMGB-1 was measured by a commercially available HMGB-1 ELISA kit (Shino-Test Corporation, Kanagawa, Japan).
The above-described clinical studies were repeated with animals having colitis which was induced as described above. […] Two days after the enema the effects of the treatment were determined by measurement of body weight, blood gas analysis and biopsy. […] Surgery was performed to allow registration of the hemodynamic parameters at 1 h intervals for 6 h (cardiac output [CO] data were measured only at the end of the experiments). […]

Structure (SMILES)	change in body weight [1]	percentage of haematocrit in the blood [2]	haematocrit level, low haematocrit data group (severe bleeding with plasma and cell loss) [2]	haematocrit level, high haematocrit data group (bleeding with plasma loss) [2]	plasma TNF-α level (TNF-α)	myeloperoxidase (MPO) activity (myeloperoxidase (MPO))	nitrite/nitrate level in the blood (nitrite/nitrate (NOx))	concentration of the high-mobility group protein B1 in the plasma [3]
CC(=O)Oc1ccccc1C(=O)O [ASS, acetylsalicylic acid, reference compound]	severe loss of body weight	severe change in the haematocrit level	severe drop	increase of the haematocrit level	increase in the plasma TNF-α level	increased	increased nitrite/nitrate level	–
CC(=O)Oc1ccccc1C(=O)NC(CO)(CO)CO [compound according to the invention]	only showed a minor loss in body weight	No change in the haematocrit level	no changes could be detected	no change in the haematocrit level	almost no change	does not further enhance the inflammatory processes	–	significant reduction
